As usually defined, the IC50 is the midpoint of a concentration-inhibition curve.

Test [1] has as its target T1, Human recombinant PTP1B (hPTP1B) (Homo sapiens, UniProt P18031).
T1 construct: made in house
T1 sequence (P18031 1-435): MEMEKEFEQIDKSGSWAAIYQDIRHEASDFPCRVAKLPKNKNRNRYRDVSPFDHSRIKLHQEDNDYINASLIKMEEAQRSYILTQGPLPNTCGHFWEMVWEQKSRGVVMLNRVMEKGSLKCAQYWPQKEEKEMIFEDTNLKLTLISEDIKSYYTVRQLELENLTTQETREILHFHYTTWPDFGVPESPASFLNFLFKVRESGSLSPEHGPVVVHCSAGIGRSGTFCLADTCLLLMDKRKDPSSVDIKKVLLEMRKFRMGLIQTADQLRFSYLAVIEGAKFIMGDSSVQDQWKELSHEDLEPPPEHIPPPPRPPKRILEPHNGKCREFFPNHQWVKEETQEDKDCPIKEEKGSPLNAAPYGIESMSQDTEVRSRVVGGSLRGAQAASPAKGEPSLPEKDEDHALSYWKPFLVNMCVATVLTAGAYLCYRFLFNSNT
It counts as biochemical.

Test [2] deals with rat hepatic microsomal PTPases. The settings on record: 50 μM compound.

Regarding “9-Bromo-4-(3-bromo-methoxy-5-nitro-phenyl)-2,3-dimethyl-naphtho[2,3-b]thiophene [Example 57]”, the IC50 in test [1] was 1900 nM.

Consider `Cc1sc2c(Br)c3ccccc3c(-c3cc(N)c(O)c(Br)c3)c2c1C` [Example 23, 2-Amino-6-bromo-4-(9-bromo-2,3-dimethyl-naphtho[2,3-b]thiophen-4-yl)-phenol], for which, in test [1], the IC50 stood at 743 nM. The “% Change from Control” value in test [2] was −26.11%.

On to `Cc1sc2c(Sc3ccccc3)c3ccccc3c(-c3cc(Br)c(O[C@H](C)C(=O)O)c(Br)c3)c2c1C` [Example 34, (R)-2-[2,6-Dibromo-4-(2,3-dimethyl-9-phenylsulfanyl-naphtho[2,3-b]thiophen-4-yl)-phenoxy]-propionic acid], for which the IC50 in test [1] was determined as 100 nM. Besides, the “% Change from Control” value in test [2] is −63.01%.

With `Cc1c(CN2CCOCC2)sc2c(Br)c3ccccc3c(-c3cc(Br)c(OC(C)C(=O)O)c(Br)c3)c12` (stereo not shown) [Example 36, 2-[2,6-Dibromo-4-(9-bromo-3-methyl-2-morpholin-4-ylmethyl-naphtho[2,3-b]thiophen-4-yl)-phenoxy]-propionic acid], the IC50 in test [1] was 1340 nM. In test [2], the “% Change from Control” value is listed as −67.00%.

As for `CCN(CC)Cc1sc2c(Br)c3ccccc3c(-c3cc(Br)c(O[C@H](Cc4ccccc4)C(=O)O)c(Br)c3)c2c1C` [Example 37, (R)-2-[2,6-Dibromo-4-(9-bromo-2-diethylaminomethyl-3-methyl-naphtho[2,3-b]thiophen-4-yl)-phenoxy]-3-phenyl-propionic acid], in test [1], the IC50 was found to be 352 nM. Further, the “% Change from Control” value in test [2] was −49.83%.

On to `Cc1sc2c(Br)c3ccccc3c(-c3cc(Br)c(OC(Cc4ccccc4)C(=O)O)c([N+](=O)[O-])c3)c2c1C` (stereo not shown) [Example 38, [2-Bromo-4-(9-bromo-2,3-dimethyl-naphtho[2,3-b]thiophen-4-yl)-2-nitro-phenoxy]-3-phenyl-propionic acid], for which the IC50 in test [1] was 299 nM. For the same compound, the “% Change from Control” value in test [2] was −57.74%.

Turning to `Cc1sc2cc3ccccc3c(-c3ccc(O[C@H](Cc4ccccc4)C(=O)O)c(C(C)C)c3)c2c1C` [Example 41, (R)-2-[4-(2,3-dimethyl-naphtho[2,3-b]thiophen-4-yl)-2-isopropyl-phenoxy]-3-phenyl-propionic acid], in test [1], the IC50 came out at 729 nM. Besides, in test [2], the “% Change from Control” value was −39.60%.

For `Cc1sc2cc3ccccc3c(-c3ccc(O[C@H](Cc4ccccc4)C(=O)O)c(C4CCCC4)c3)c2c1C` [Example 45, (R)-2-[2-Cyclopentyl-4-(2,3-dimethyl-naphtho[2,3-b]thiophen-4-yl)-phenoxy]-3-phenyl-propionic acid], the half-maximal inhibitory concentration (IC50) in test [1] is 203 nM. Besides, the “% Change from Control” value in test [2] was −94.50%.

As to `Cc1cc(-c2c3ccccc3cc3sc(C)c(C)c23)cc(C)c1O[C@H](Cc1ccccc1)C(=O)O` [Example 46, (R)-2-[4-(2,3-Dimethyl-naphtho[2,3-b]thiophen-4-yl)-2,6-dimethyl-phenoxy]-3-phenyl-propionic acid], the IC50 in test [1] worked out at 1190 nM. Further, the “% Change from Control” value in test [2] is given as −91.00%.

`Cc1sc2c(Br)c3ccccc3c(-c3ccc(O[C@H](Cc4ccccc4)C(=O)O)c(C4CCCC4)c3)c2c1C` [Example 47]: the IC50 in test [1] turned out to be 95 nM. Also, the “% Change from Control” value in test [2] was −68.48%.

Take `Cc1sc2cc3ccccc3c(-c3cc(C(C)C)c(O[C@H](Cc4ccccc4)C(=O)O)c(C(C)C)c3)c2c1C` [Example 50, (R)-2-[4-(2,3-Dimethyl-naphtho[2,3-b]thiophen-4-yl)-2,6-diisopropyl-phenoxy]-3-phenyl-propionic acid]: the IC50 in test [1] is 457 nM. The “% Change from Control” value in test [2] is on record as −81.27%.

For `Cc1sc2cc3ccccc3c(-c3ccc(O[C@H](Cc4ccccc4)C(=O)O)c(F)c3)c2c1C` [Example 51, (R)-2-[4-(2,3-Dimethyl-naphtho[2,3-b]thiophen-4-yl)-2-fluoro-phenoxy]-3-phenyl-propionic acid], the half-maximal inhibitory concentration (IC50) in test [1] worked out at 2210 nM.

As for `Cc1sc2c(Br)c3ccccc3c(-c3ccc(O[C@H](Cc4ccccc4)C(=O)O)c(F)c3)c2c1C` [Example 52, (R)-2-[4-(9-Bromo-2,3-dimethyl-naphtho[2,3-b]thiophen-4-yl)-2-fluoro-phenoxy]-3-phenyl-propionic acid], the IC50 in test [1] was found to be 287 nM. Also, the “% Change from Control” value in test [2] was −87.66%.

Regarding `Cc1oc2cc3ccccc3c(-c3cc(Br)c(O[C@H](Cc4ccccc4)C(=O)O)c(Br)c3)c2c1C` [Example 54, (2R)-2-[2,6-Dibromo-4-(2,3-dimethyl-naphtho[2,3-b]furan-4-yl)-phenoxy]-3-phenyl-propionic acid], the IC50 in test [1] is 982 nM.

`Cc1sc2c(Br)c3ccccc3c(-c3cc(C(C)C)c(O[C@H](Cc4ccccc4)C(=O)O)c(C(C)C)c3)c2c1C` [Example 55, (2R)-2-[4-(9-Bromo-2,3-dimethyl-naphtho[2.3-b]thiophen-4-yl)-2,6-diisopropyl-phenoxy]-3-phenyl-propionic acid]: the IC50 in test [1] amounted to 59 nM.

As to `Cc1cc(-c2c3ccccc3c(Br)c3sc(C)c(C)c23)cc(C)c1O[C@H](Cc1ccccc1)C(=O)NCC(=O)O` [Example 62, {(2R)-2-[4-(9-Bromo-2,3-dimethyl-naphtho[2,3-b]thiophen-4-yl)-2,6-dimethyl-phenoxy]-3-phenyl-propionylamino}-acetic acid], in test [1], the 50% inhibitory concentration (IC50) came to 28 nM.

Consider `CCc1cc(-c2c3ccccc3c(Br)c3sc(C)c(C)c23)cc(CC)c1O[C@H](Cc1ccccc1)C(=O)NCC(=O)O` [Example 63, {(2R)-2-[4-(9-Bromo-2,3-dimethyl-naphtho[2,3-b]thiophen-4-yl)-2,6-diethyl-phenoxy]-3-phenyl-propionylamino}-acetic acid], for which the IC50 in test [1] amounted to 138 nM.

As to `Cc1sc2c(Br)c3ccccc3c(-c3ccc(O[C@H](Cc4ccccc4)C(=O)O)cc3)c2c1C` [Example 64, (2R)-2-[4-(9-Bromo-2,3-dimethyl-naphtho[2,3-b]thiophen-4-yl)-phenoxy]-3-phenyl-propionic acid], the IC50 in test [1] came out at 390 nM.

For `CCc1cc(-c2c3ccccc3cc3sc(C)c(C)c23)cc(CC)c1O[C@H](Cc1ccccc1)C(=O)NCC(=O)O` [Example 68, {(2R)-2-[4-(2,3 -Dimethyl-naphtho[2,3-b]thiophen-4-yl)-2,6-diethyl-phenoxy]-3-phenyl-propionylamino}-acetic acid], in test [1], the IC50 was found to be 80 nM.

Regarding `CCc1cc(-c2c3ccccc3c(Br)c3oc(C)c(C)c23)cc(CC)c1O[C@H](Cc1ccccc1)C(=O)O` [Example 70, (R)-2-[4-(9-Bromo-2-,3-dimethyl-naphtho[2,3-b]furan-4-yl)-2.6-diethyl-phenoxy]-3-phenyl-propionic acid], in test [1], the IC50 was determined as 330 nM.

As for `Cc1sc2cc3ccccc3c(-c3ccc(O[C@H](C)C(=O)O)c(C4CCCC4)c3)c2c1C` [Example 71, (R)-2-[2-Cyclopentyl-4-(2-,3-dimethyl-naphtho[2,3-b]thiophen-4-yl)-phenoxy]-propionic acid], the IC50 in test [1] is 1190 nM.

For the compound `Cc1sc2c(Br)c3ccccc3c(-c3ccc(O[C@H](C)C(=O)O)c(C4CCCC4)c3)c2c1C` [Example 72, (R)-2-[4-(9-Bromo-2-,3-dimethyl-naphtho[2,3-b]thiophen-4-yl)-2-cyclopentyl-phenoxy]-propionic acid], in test [1], the IC50 is 480 nM.

On to `CCc1cc(-c2c3ccccc3cc3sc(C)c(C)c23)ccc1O[C@H](Cc1ccccc1)C(=O)O` [Example 76, (R)-2-[4-(2-,3-Dimethyl-naphtho[2,3-b]thiophen-4-yl)-2-ethyl-phenoxy]-3-phenyl-propionic acid], for which the half-maximal inhibitory concentration (IC50) in test [1] came to 450 nM.

`CCc1cc(-c2c3ccccc3cc3oc(C)c(C)c23)cc(Br)c1O` [Example 78, 2-Bromo-4-(2-,3-dimethyl-naphtho[2,3-b]furan-4-yl)-6-ethyl-phenol]: the IC50 in test [1] is 270 nM.

`CCc1cc(-c2c3ccccc3cc3oc(C)c(C)c23)cc(Br)c1O[C@H](Cc1ccccc1)C(=O)O` [Example 79, (R)-2-[2-Bromo-4-(2-,3-dimethyl-naphtho[2,3-b]furan-4-yl)-6-ethyl-phenoxy]-3-phenyl-propionic acid]: the concentration for half-maximal inhibition (IC50) in test [1] came to 780 nM.

As for `CCCc1cc(-c2c3ccccc3c(Br)c3sc(C)c(C)c23)ccc1O[C@H](Cc1ccccc1)C(=O)O` [Example 83, (R)-2-[4-(9-Bromo-2-,3-dimethyl-naphtho[2,3-b]thiophen-4-yl)-2-propyl-phenoxy]-3-phenyl-propionic acid], the IC50 in test [1] is 130 nM.

On to `CCN(CC)Cc1sc2c(Br)c3ccccc3c(-c3cc(C(C)C)c(O[C@H](Cc4ccccc4)C(=O)O)c(C(C)C)c3)c2c1C` [Example 88, (2R)-2-[4-(9-Bromo-2-diethylaminomethyl-3-methyl-naphtho[2,3-b]thiophen-4-yl)-2,6-diisopropyl-phenoxy]-3-phenyl-propionic acid], for which the 50% inhibitory concentration (IC50) in test [1] stood at 320 nM.

Consider “Ammonium molybdate tetrahydrate [reference compound]”, for which the IC50 in test [1] was 8700 nM.

Take “[2-Bromo-4-(9-bromo-2,3-dimethyl-naphtho[2,3-b]thiophen-4-yl)-2-nitro-phenoxy]-acetic acid [Example 24]”: the “% Change from Control” value in test [2] was −65.31%.

(Values after patent publication US6444670B2 (Wyeth, priority 1998, dated 2002).)
